US20260184707A1, “PHARMACEUTICAL COMPOUNDS FOR THE TREATMENT OF COMPLEMENT MEDIATED DISORDERS” (ALEXION PHARMACEUTICALS, INC., priority 2022, published 2026)
pIC50: −log10 of the molar value.

Target: T1, Human complement C1s enzyme (Homo sapiens, UniProt P09871)
T1 construct: purified from human serum, Complement Technology, Inc; purchased Complement Technology, Inc; host or cells: human serum (plasma-derived native protein)
T1 sequence (P09871 438-688 limits assumed): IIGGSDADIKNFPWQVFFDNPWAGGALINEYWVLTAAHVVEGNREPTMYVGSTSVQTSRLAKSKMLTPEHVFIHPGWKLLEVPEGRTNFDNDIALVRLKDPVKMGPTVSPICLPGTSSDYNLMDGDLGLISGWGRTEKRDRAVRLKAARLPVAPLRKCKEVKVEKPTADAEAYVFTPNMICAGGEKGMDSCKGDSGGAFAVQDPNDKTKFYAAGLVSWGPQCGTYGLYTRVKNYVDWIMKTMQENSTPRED
T1 sequence (P09871 16-437 partner limits assumed): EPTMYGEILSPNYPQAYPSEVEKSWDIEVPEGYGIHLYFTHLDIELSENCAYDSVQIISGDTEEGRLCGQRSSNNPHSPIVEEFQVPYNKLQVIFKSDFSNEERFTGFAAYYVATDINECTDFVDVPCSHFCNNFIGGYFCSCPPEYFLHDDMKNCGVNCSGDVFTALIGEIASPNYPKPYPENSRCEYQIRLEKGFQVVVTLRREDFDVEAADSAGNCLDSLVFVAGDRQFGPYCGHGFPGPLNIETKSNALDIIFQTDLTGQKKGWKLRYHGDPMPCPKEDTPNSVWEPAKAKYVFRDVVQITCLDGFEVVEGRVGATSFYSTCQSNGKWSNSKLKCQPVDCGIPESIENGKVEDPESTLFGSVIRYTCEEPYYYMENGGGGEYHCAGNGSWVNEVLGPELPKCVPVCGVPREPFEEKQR
Assay: Human C1s enzyme assay
Format: biochemical
Details: human complement C1s enzyme 1.16 nM, substrate Z-L-Lys-SBzl, A405; read-out: IC50 (Stars)
Summary of the method: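 Thioesterase activity followed colorimetrically (DTNB, A405, 30-s reads) using 100 μM Z-L-Lys-SBzl substrate. Enzyme, human serum-derived C1s at 1.16 nM final, was incubated with test compound for 5 min, room temperature, pH 7.5 Tris buffer with 1 M NaCl. Rate-versus-concentration data fitted by nonlinear regression for IC50.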

pIC50	Structure (SMILES)
> 7.00	O=C(Cn1c(-c2ccccc2)ncc(NC(=O)c2coc(-c3cccnc3)n2)c1=O)NCc1cc2cnccc2[nH]1 [Compound 231, N-(1-(2-(((1H-pyrrolo[3,2-c]pyridine-2-yl)methyl)amino)-2-oxoethyl)-6-oxo-2-phenyl-1,6-dihydropyrimidin-5-yl)-2-(pyridine-3-yl)oxazole-4-carboxamide]
> 7.00	O=C(Cn1c(-c2ccco2)ncc(NCc2ccc3oc4ccccc4c3c2)c1=O)NCc1cc2cnccc2[nH]1 [Compound 232, N-((1H-pyrrolo[3,2-c]pyridin-2-yl)methyl)-2-(5-((dibenzo [b,d]furan-2-ylmethyl)amino)-2-(furan-2-yl)-6-oxopyrimidin-1(6H)-yl)acetamide]
> 7.00	O=C(Cn1c(-c2ccccc2)ncc(NCc2coc(-c3ccccc3)n2)c1=O)NCc1cc2cnccc2[nH]1 [Compound 233, N-((1H-pyrrolo[3,2-c]pyridin-2-yl)methyl)-2-(6-oxo-2-phen-yl-5-(((2-phenyloxazol-4-yl)-methyl)amino)pyrimidin-1(6H)-yl)acetamide]
> 7.00	O=C(Cn1c(-c2ccccc2)ncc(Nc2ccc3oc4ccccc4c3c2)c1=O)NCc1cc2cnccc2[nH]1 [Compound 234, N-((1H-pyrrolo[3,2-c]pyridin-2-yl)methyl)-2-(5-(dibenzo [b,d]furan-2-ylamino)-6-oxo-2-phenylpyrimidin-1(6H)-yl)-acetamide]
< 6.00	O=C(Cn1c(-c2ccccc2)ncc(NC(=O)c2ccc(-c3ccccc3)s2)c1=O)Nc1nc2cnccc2s1 [Compound 235, N-(6-ox0-1-(2-oxo-2-(thiazolo [4,5-c]pyridin-2-ylamino)-ethyl)-2-phenyl-1,6-dihydro-pyrimidin-5-yl)-5-phenylthio-phene-2-carboxamide]
> 7.00	O=C(Cn1c(-c2ccccc2)ncc(Nc2cccc(-c3ccc(F)cc3)c2)c1=O)NCc1cc2cnccc2[nH]1 [Compound 236, N-((1H-pyrrolo[3,2-c]pyridin-2-yl)methyl)-2-(5-((4′-fluoro-[1,1′-biphenyl]-3-yl)amino)-6-oxo-2-phenylpyrimidin-1(6H)-yl)acetamide]
> 7.00	C[C@@H](Nc1cnc(-c2ccccc2F)n(CC(=O)NCc2cc3cnccc3[nH]2)c1=O)c1ccc2oc3ccccc3c2c1 [Compound 237, (R)-N-((1H-pyrrolo[3,2-c]pyr-idin-2-yl)methyl)-2-(5-((1-(dibenzo[b,d]furan-2-yl)ethyl)-amino)-2-(2-fluorophenyl)-6-oxopyrimidin-1(6H)-yl)acet-amide]
> 7.00	CO[C@@H]1CO[C@H]2[C@@H]1OC[C@H]2Oc1ccc(-c2ncc(N[C@H](C)c3ccc4oc5ccccc5c4c3)c(=O)n2CC(=O)NCc2cc3cnccc3[nH]2)cc1 [Compound 238, N-((1H-pyrrolo[3,2-c]pyridin-2-yl)methyl)-2-(5-(((R)-1-(dibenzo[b,d]furan-2-yl)ethyl)-amino)-2-(4-(((3R,3aR,6R, 6aR)-6-methoxyhexahydrofuro [3,2-b]furan-3-yl)oxy)phenyl)-6-oxopyrimidin-1(6H)-yl)acet-amide]
< 6.00	C[C@H](NC(=O)Cn1c(-c2ccccc2)ncc(N[C@H](C)c2ccc3oc4ccccc4c3c2)c1=O)c1cc2cnccc2[nH]1 [Compound 239, N-((S)-1-(1H-pyrrolo[3,2-c]pyridin-2-yl)ethyl)-2-(5-(((R)-1-(dibenzo[b,d]furan-2-yl)-ethyl)amino)-6-oxo-2-phenyl-pyrimidin-1(6H)-yl)acetamide]
> 7.00	O=C(Cn1c(-c2ccccc2)ncc(NC(=O)c2ccc(-c3ccccc3)c(F)c2)c1=O)NCc1cc2cnccc2[nH]1 [Compound 240, N-(1-(2-(((1H-pyrrolo[3,2-c]pyridin-2-yl)methyl)amino)-2-oxoethyl)-6-oxo-2-phenyl-1,6-dihydropyrimidin-5-yl)-2-fluoro-[1,1′-biphenyl]-4-carboxamide]
> 7.00	O=C(Cn1c(C2=CCCCC2)ncc(NCc2ccc3oc4ccccc4c3c2)c1=O)NCc1cc2cnccc2[nH]1 [Compound 241, N-((1H-pyrrolo[3,2-c]pyridin-2-yl)methyl)-2-(2-(cyclohex-1-en-1-yl)-5-((dibenzo[b,d]furan-2-ylmethyl)amino)-6-oxopyrimidin-1(6H)-yl)acet-amide]
> 7.00	O=C(Cn1c(-c2cccnc2)ncc(NCc2ccc3oc4ccccc4c3c2)c1=O)NCc1cc2cnccc2[nH]1 [Compound 242, N-((1H-pyrrolo[3,2-c]pyridin-2-yl)methyl)-2-(5-((dibenzo [b,d]furan-2-ylmethyl)amino)-6-oxo-2-(pyridin-3-yl)pyrimi-din-1(6H)-yl)acetamide]
6.00 to 7.00	O=C(Cn1c(-c2ccccc2)ncc(NC(=O)C23CC(c4ccccc4)(C2)C3)c1=O)NCc1cc2cnccc2[nH]1 [Compound 243, N-(1-(2-(((1H-pyrrolo[3,2-c]pyridin-2-yl)methyl)amino)-2-oxoethyl)-6-oxo-2-phenyl-1,6-dihydropyrimidin-5-yl)-3-phenylbicyclo[1.1.1]pentane-1-carboxamide]
> 7.00	Cc1cc(F)cc(C)c1Nc1cnc(-c2ccccc2)n(CC(=O)NCc2cc3cnccc3[nH]2)c1=O [Compound 244, N-((1H-pyrrolo[3,2-c]pyridin-2-yl)methyl)-2-(5-((4-fluoro-2,6-dimethylphenyl)amino)-6-oxo-2-phenylpyrimidin-1(6H)-yl)acetamide]
> 7.00	O=C(Cn1c(-c2ccccc2)ncc(Nc2ccc3c(c2)oc2ccccc23)c1=O)NCc1cc2cnccc2[nH]1 [Compound 245]
> 7.00	O=C(Cn1cncc(NCc2ccc3oc4ccccc4c3c2)c1=O)NCc1cc2cnccc2[nH]1 [Compound 246, 2-[5-(Dibenzofuran-2-ylmethylamino)-6-oxo-pyrimidin-1-yl]-N-(1H-pyrrolo[3,2-c]pyridine-2-ylmethyl)acetamide]
> 7.00	Cc1ncc(NCc2ccc3oc4ccccc4c3c2)c(=O)n1CC(=O)NCc1cc2cnccc2[nH]1 [Compound 247, N-((1H-pyrrolo[3,2-c]pyridin-2-yl)methyl)-2-(5-((dibenzo [b,d]furan-2-ylmethyl)amino)-2-methyl-6-oxopyrimidin-1(6H)-yl)acetamide]
> 7.00	COc1ccc(-c2ncc(N[C@H](C)c3ccc4oc5ccccc5c4c3)c(=O)n2CC(=O)NCc2cc3cnccc3[nH]2)cc1 [Compound 248, (R)-N-((1H-pyrrolo[3,2-c]pyr-idin-2-yl)methyl)-2-(5-((1-(dibenzo[b,d]furan-2-yl)ethyl)-amino)-2-(4-methoxyphenyl)-6-oxopyrimidin-1(6H)-yl)-acetamide]
> 7.00	CO[C@@H]1CO[C@H]2[C@@H]1OC[C@H]2Oc1ccc(-c2ncc(NC(=O)c3ccc(-c4ccccc4)s3)c(=O)n2CC(=O)NCc2cc3cnccc3[nH]2)cc1 [Compound 249, N-(1-(2-(((1H-pyrrolo[3,2-c]pyridine-2-yl)methyl)amino)-2-oxoethyl)-2-(4-(((3R,3aR,6R,6aR)-6-methoxyhexahydrofuro[3,2-b]furan-3-yl)oxy)phenyl)-6-oxo-1,6-dihydropyrimidin-5-yl)-5-phenylthiophene-2-carboxamide]
> 7.00	O=C(Cn1c(-c2ccccc2)ncc(NCc2ccc(-c3ccccc3F)cc2)c1=O)NCc1cc2cnccc2[nH]1 [Compound 250, N-((1H-pyrrolo[3,2-c]pyridin-2-yl)methyl)-2-(5-(((2′-fluoro-[1,1′-biphenyl]-4-yl)methyl)amino)-6-oxo-2-phenylpyrimidin-1(6H)-yl)acetamide]
> 7.00	O=C(Cn1c(-c2cccs2)ncc(NCc2ccc3oc4ccccc4c3c2)c1=O)NCc1cc2cnccc2[nH]1 [Compound 251, N-((1H-pyrrolo[3,2-c]pyridin-2-yl)methyl)-2-(5-((dibenzo [b,d]furan-2-ylmethyl)amino)-6-oxo-2-(thiophen-2-yl)pyrimi-din-1(6H)-yl)acetamide]
> 7.00	O=C(Cn1c(-c2ccccn2)ncc(NCc2ccc3oc4ccccc4c3c2)c1=O)NCc1cc2cnccc2[nH]1 [Compound 252, N-((1H-pyrrolo[3,2-c]pyridin-2-yl)methyl)-2-(5-((dibenzo [b,d]furan-2-ylmethyl)amino)-6-oxo-2-(pyridin-2-yl)pyrimi-din-1(6H)-yl)acetamide]
> 7.00	O=C(Cn1c(C2CCCC2)ncc(NCc2ccc3oc4ccccc4c3c2)c1=O)NCc1cc2cnccc2[nH]1 [Compound 253, N-((1H-pyrrolo[3,2-c]pyridine-2-yl)methyl)-2-(2-cyclopentyl-5-((dibenzo[b,d]furan-2-ylmethyl)amino)-6-oxopyrimidin-1(6H)-yl)acetamide]
> 7.00	O=C(Cn1c(-c2ccccc2)ncc(NC(=O)C2CCC(c3ccccc3)CC2)c1=O)NCc1cc2cnccc2[nH]1 (stereo not drawn) [Compound 254, N-(1-(2-(((1H-pyrrolo[3,2-c]pyridin-2-yl)methyl)amino)-2-oxoethyl)-6-oxo-2-phenyl-1,6-dihydropyrimidin-5-yl)-4-phen-ylcyclohexane-1-carboxamide]
